Experimental data: US20230413811A1 (priority 2020, published 2023)
Like-named read-outs stand apart in the source and are kept apart here.

How the values were obtained:
[1] = system: Phytophthora infestans strain Pi96; format: in vivo
[2] = Water solubility at different pH values; format: physicochemical; conditions: for solubility: water
From the text: The results are compiled in the table here below:

[3] = 0.1 M carbonate buffer in water, aqueous buffer, pH 7, buffer 0.1M Carbonate
[4] = 0.1 M citrate buffer in water, aqueous buffer, pH 4, buffer 0.1M Citrate
[5] = 0.1 M glycine buffer in water, aqueous buffer, pH 10, buffer 0.1M Glycine

Q: Which “Disease Severity Index (%)” value ([1]; 10 ppm, 3 dpi) does the source give for CCCCCCCCCCCCCCCCCC[S+](C)C.[Cl-] [ODS-Cl, octadecyl dimethyl sulfonium chloride] here?
A: Its value is 10.3%.

Q: What about the “Disease Severity Index (%)” value ([1]; 10 ppm, 5 dpi) of the same compound?
A: The value was 18.3%.

Q: What about the “Disease Severity Index (%)” value ([1]; 10 ppm, 7 dpi) of the same compound?
A: The value was 39.7%.

Q: What about the “Disease Severity Index (%)” value ([1]; 10 ppm, 10 dpi) of the same compound?
A: The value was 97.8%.

Q: And the “Fungicide efficacy (%) at 10 dpi” value ([1]; 10 ppm, 10 dpi)?
A: Its value is 0.0%.

Q: And the “Disease Severity Index (%)” value ([1]; 50 ppm, 3 dpi)?
A: Its value is 8.7%.

Q: And the “Disease Severity Index (%)” value ([1]; 50 ppm, 5 dpi)?
A: Its value is 15.6%.

Q: What about the “Disease Severity Index (%)” value ([1]; 50 ppm, 7 dpi) of the same compound?
A: The value was 40.0%.

Q: What about the “Disease Severity Index (%)” value ([1]; 50 ppm, 10 dpi) of the same compound?
A: The value was 89.4%.

Q: And the “Fungicide efficacy (%) at 10 dpi” value ([1]; 50 ppm, 10 dpi)?
A: The value was 0.0%.

Q: And the “Disease Severity Index (%)” value ([1]; 100 ppm, 3 dpi)?
A: The value was 5.5%.

Q: And the “Disease Severity Index (%)” value ([1]; 100 ppm, 5 dpi)?
A: Its value is 11.1%.

Q: What about the “Disease Severity Index (%)” value ([1]; 100 ppm, 7 dpi) of the same compound?
A: The value was 27.8%.

Q: And the “Disease Severity Index (%)” value ([1]; 100 ppm, 10 dpi)?
A: The value was 71.8%.

Q: And the “Fungicide efficacy (%) at 10 dpi” value ([1]; 100 ppm, 10 dpi)?
A: The value was 12.5%.

Q: What about the “Disease Severity Index (%)” value ([1]; 500 ppm, 3 dpi) of the same compound?
A: Its value is 0.0%.

Q: And the “Disease Severity Index (%)” value ([1]; 500 ppm, 5 dpi)?
A: Its value is 0.0%.

Q: What about the “Disease Severity Index (%)” value ([1]; 500 ppm, 7 dpi) of the same compound?
A: The value was 0.0%.

Q: And the “Disease Severity Index (%)” value ([1]; 500 ppm, 10 dpi)?
A: Its value is 0.0%.

Q: And the “Fungicide efficacy (%) at 10 dpi” value ([1]; 500 ppm, 10 dpi)?
A: The value was 100.0%.

Q: And the “Disease Severity Index (%)” value ([1]; 1000 ppm, 3 dpi)?
A: Its value is 0.0%.

Q: And the “Disease Severity Index (%)” value ([1]; 1000 ppm, 5 dpi)?
A: The value was 0.0%.

Q: And the “Disease Severity Index (%)” value ([1]; 1000 ppm, 7 dpi)?
A: Its value is 0.0%.

Q: What about the “Disease Severity Index (%)” value ([1]; 1000 ppm, 10 dpi) of the same compound?
A: Its value is 0.0%.

Q: And the “Fungicide efficacy (%) at 10 dpi” value ([1]; 1000 ppm, 10 dpi)?
A: Its value is 100.0%.

Q: What about the “control of the disease (late blight)” value ([1]; 1000 ppm, preventive treatment) of the same compound?
A: Its value is “full control”.

Q: And the “dose from which efficient to protect potato leaves against late blight” value ([1]; preventive treatment, detached potato leaves)?
A: The value was ≥ 100 ppm.

Q: What about the solubility [2, 3] of the same compound?
A: The solubility was 280 µg/mL.

Q: And the solubility [2, 4]?
A: The solubility was 1320 µg/mL.

Q: What about the solubility [2, 5] of the same compound?
A: The solubility was 940 µg/mL.

Q: What about the “solubility in water compared with octadecyl dimethyl sulfonium iodide” value ([2]; comparison chloride vs iodide) of the same compound?
A: The value was “higher solubility in water”.

Q: What about the “pH at which the water solubility has a minimum” value ([2]; solubility increases below and above this pH) of the same compound?
A: Its value is ~7.0.

Q: What about the solubility ([2]; pH 2.2, aqueous buffer) of the same compound?
A: The solubility was 1650 µg/mL.

Q: Which solubility [2, 3] does the source give for CCCCCCCCCCCCCCCCCC[S+](C)C.[I-] [ODS-I, octadecyl dimethyl sulfonium iodide, reference compound] here?
A: Its solubility is 80 µg/mL.

Q: What about the solubility [2, 4] of the same compound?
A: Its solubility is 290 µg/mL.

Q: What about the solubility [2, 5] of the same compound?
A: Its solubility is 30 µg/mL.

Q: And the solubility ([2]; pH 5.5, aqueous buffer)?
A: The solubility was 120 µg/mL.
